Patent US10351534B2, “Use of 3-carboxy-N-ethyl-N,N-dimethylpropan-1-aminium salts in the treatment of cardiovascular disease” (JSC GRINDEKS, priority 2011, dated 2019)
Marks after values point to notes of the source that are not given here.

Legend:
isolated rat heart = test: Isolated rat heart infarction study (after p.o. treatment); assay type: in vivo; details: for Infarct size, % of control: 20 mg/kg p.o. daily, isolated Wistar rat heart, 60 min occlusion, 150-min reperfusion, mean±s.e.m. of 9-10 animals; for decrease of infarct size: 20 mg/kg p.o., isolated rat heart infarction model, versus control
Description: Fifty male, 10 weeks old Wistar rats weighing 200-250 g were housed under standard conditions (21-23° C., 12 h light-dark cycle) with unlimited access to food (R3 diet, Lactamin AB, Sweden) and water.
Rats were adapted to local conditions for two weeks before the start of treatment. Meldonium dihydrate at a dose of 20 mg/kg, gamma-butyrobetaine at a dose of 20 mg/kg and 3-carboxy-N-ethyl-N,N-dimethylpropan-1-aminium salts at dose of 20 mg/kg were administered p.o. daily for 8 weeks. Control rats received water.
The isolated rat heart experiment was performed essentially as described earlier (Liepinsh et al., J. Cardiovasc. Pharmacol. 2006; 48(6):314-9). Twenty-four hours after the last drug administration hearts were excised and retrogradely perfused via the aorta at a constant pressure with oxygenated Krebs-Henseleit buffer at 37° C. The heart rate, left ventricle end-diastolic pressure and left ventricle developed pressure were continuously recorded. Coronary flow was measured using an ultrasound flow detector (HSE) and the PowerLab 8/30 system from ADInstruments. The hearts were perfused for 20 min to stabilize the hemodynamic functions and then occlusion was performed for 60 min by constricting threads through a plastic tube. Successful occlusion was confirmed by a coronary flow decrease of about 40 percent. Reperfusion was achieved by releasing the threads. At the end of the 150-min reperfusion period, the risk zone was delineated with 0.1% methylene blue. The hearts were then sectioned transversely from the apex to the base in five slices 2 mm in thickness and incubated in 1% triphenyltetrazolium chloride in phosphate buffer (pH 7.4, 37° C.) for 10 min to stain viable tissue red and necrotic tissue white. Computerized planemetric analysis of Sony A900 photographs was performed using Image-Pro Plus 6.3 software to determine the area at risk and area of necrosis expressed as a % of the left ventricle. The obtained values were then used to calculate the infarct size (IS) as a % of risk area according to the formula: Infarct Size=Area of Necrosis/Area at Risk×100%.
The anti-infarction effect of examined substances was investigated in an isolated rat heart infarction model. During occlusion of left coronary artery, the coronary flow in all experimental groups was decreased for 40% (from 11 ml/min to 7 ml/min). Moreover, the drop of developed left ventricular pressure for 50% was observed. […] In reperfusion stage, coronary flow, developed left ventricular pressure, ±dp/dt values were recovered till about 80% of control level. There were no significant differences between control and treatment groups.

[1] = s.c.; cited from earlier work

| Compound | Infarct size, % of control (isolated rat heart) | decrease of infarct size (isolated rat heart) | LD50 [1] |
| --- | --- | --- | --- |
| 3-carboxy-N-ethyl-N,N-dimethylpropan-1-aminium 2-(acetyloxy)benzoate | 61.6 ± 6.7*^,#,$ % of control | 38.4% | – |
| CC[N+](C)(C)CCCC(=O)O.O=C([O-])c1cc(=O)[nH]c(=O)[nH]1 [3-carboxy-N-ethyl-N,N-dimethylpropan-1-aminium 2,6-dioxo-1,2,3,6-tetrahydropyrimidine-4-carboxylate] | 60.6 ± 6.7*^,#,$ % of control | 39.4% | – |
| CC[N+](C)(C)CCCC(=O)O.O=C([O-])CCC(=O)O [3-carboxy-N-ethyl-N,N-dimethylpropan-1-aminium 3-carboxypropanoate] | 62.9 ± 4.7*^,#,$ % of control | 37.1% | – |
| CC[N+](C)(C)CCCC(=O)O.O=C([O-])/C=C/C(=O)O [3-carboxy-N-ethyl-N,N-dimethylpropan-1-aminium (2E)-3-carboxyacrylate] | 46.5 ± 7.0*^,#,$ % of control | 53.5% | – |
| CC[N+](C)(C)CCCC(=O)O [3-carboxy-N-ethyl-N,N-dimethylpropan-1-aminium dihydrogen phosphate] | 56.1 ± 4.4*^,#,$ % of control | 43.9% | – |
| C[N+](C)(C)CCCC(=O)[O-] [Gamma-butyrobetaine, γ-Butyrobetaine, reference compound] | 87.6 ± 11.4 % of control | 12.4% | > 7000 mg/kg |
| C[N+](C)(C)NCCC(=O)[O-] [Meldonium dihydrate, 3-(2,2,2-Trimethylhydrazinium) propionate dihydrate, reference compound] | 117.9 ± 7.9 % of control | – | – |
